The target of one data set is T1, TRPV3 channel (Homo sapiens, UniProt Q8NET8).
T1 construct: expressed in transfected cells; host or cells: HEK293/TREx (Invitrogen), tetracycline-induced
T1 sequence (Q8NET8 1-790): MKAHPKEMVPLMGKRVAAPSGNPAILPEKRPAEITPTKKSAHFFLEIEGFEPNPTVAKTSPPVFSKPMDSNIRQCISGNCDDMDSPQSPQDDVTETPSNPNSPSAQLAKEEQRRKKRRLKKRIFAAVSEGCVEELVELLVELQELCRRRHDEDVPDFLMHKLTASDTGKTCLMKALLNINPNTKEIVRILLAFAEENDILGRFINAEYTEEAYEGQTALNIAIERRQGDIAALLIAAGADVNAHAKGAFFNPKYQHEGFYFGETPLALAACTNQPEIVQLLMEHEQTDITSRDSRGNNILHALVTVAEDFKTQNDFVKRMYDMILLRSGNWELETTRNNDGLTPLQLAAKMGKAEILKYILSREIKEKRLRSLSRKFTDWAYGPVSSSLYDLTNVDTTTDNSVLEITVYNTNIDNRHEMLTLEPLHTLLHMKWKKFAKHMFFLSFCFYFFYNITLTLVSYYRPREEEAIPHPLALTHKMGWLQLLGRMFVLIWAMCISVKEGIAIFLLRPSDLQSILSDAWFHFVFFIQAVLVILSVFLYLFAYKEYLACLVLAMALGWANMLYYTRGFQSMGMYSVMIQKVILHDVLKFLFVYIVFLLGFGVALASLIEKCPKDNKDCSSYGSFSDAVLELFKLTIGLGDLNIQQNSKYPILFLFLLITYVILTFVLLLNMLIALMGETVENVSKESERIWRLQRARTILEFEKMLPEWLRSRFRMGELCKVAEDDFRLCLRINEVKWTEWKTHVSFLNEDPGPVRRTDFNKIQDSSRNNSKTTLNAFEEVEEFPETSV
Nature of the data set: High-throughput screening assay: Ca2+ rise after 2-APB activation in HEK293/TREx cells inducibly expressing TRPV3. The settings on record: read-out: IC50 for inhibition of TRPV3 activity; Ca2+ flux, Fura-2, 150 μM 2-APB. Format: cell-based. An excerpt:
The assay depends on detection of the rise in intracellular Ca^2+ concentration ([Ca^2+]i) following channel activation in cells inducibly expressing the TRPV3 channel. Ca^2+ rise is quantified with the use of fluorescent Ca^2+ indicators that are loaded into cells and thereafter indicated the [Ca^2+]i. Ca^2+ influx follows activation of the TRPV3 channel. Compounds inhibiting this [Ca^2+]i rise are considered hits for further investigation.
The commercially available HEK293/TREx line (Invitrogen) was stably transfected with a TRPV3 construct and screened by immunostaining to find clones with TRPV3 expression following stimulation with 1 μg/ml tetracycline. Clonal TRPV3-expressing cells were maintained in the growth medium recommended by the manufacturer supplemented with 100 μg/ml hygromycin to promote retention of the TRPV3 construct. After growing to near confluency, cells are plated at a density of ˜25,000 cells/well in 384 well plates in the presence of 1 μg/ml tetracycline, and allowed to grow for 20-30 hrs. A nearly confluent monolayer results. […] These controls defined a screening window, and “hits” were defined as those test compounds inhibiting the fluorescence response by at least 40%.
(A change in cytosolic calcium serves as a functional read-out for many receptors and channels.)

The next data set has as its target T2, rat (r) TRPV3 (Rattus norvegicus, UniProt Q4QYD9).
T2 construct: expressed in transfected cells
T2 sequence (Q4QYD9 1-791): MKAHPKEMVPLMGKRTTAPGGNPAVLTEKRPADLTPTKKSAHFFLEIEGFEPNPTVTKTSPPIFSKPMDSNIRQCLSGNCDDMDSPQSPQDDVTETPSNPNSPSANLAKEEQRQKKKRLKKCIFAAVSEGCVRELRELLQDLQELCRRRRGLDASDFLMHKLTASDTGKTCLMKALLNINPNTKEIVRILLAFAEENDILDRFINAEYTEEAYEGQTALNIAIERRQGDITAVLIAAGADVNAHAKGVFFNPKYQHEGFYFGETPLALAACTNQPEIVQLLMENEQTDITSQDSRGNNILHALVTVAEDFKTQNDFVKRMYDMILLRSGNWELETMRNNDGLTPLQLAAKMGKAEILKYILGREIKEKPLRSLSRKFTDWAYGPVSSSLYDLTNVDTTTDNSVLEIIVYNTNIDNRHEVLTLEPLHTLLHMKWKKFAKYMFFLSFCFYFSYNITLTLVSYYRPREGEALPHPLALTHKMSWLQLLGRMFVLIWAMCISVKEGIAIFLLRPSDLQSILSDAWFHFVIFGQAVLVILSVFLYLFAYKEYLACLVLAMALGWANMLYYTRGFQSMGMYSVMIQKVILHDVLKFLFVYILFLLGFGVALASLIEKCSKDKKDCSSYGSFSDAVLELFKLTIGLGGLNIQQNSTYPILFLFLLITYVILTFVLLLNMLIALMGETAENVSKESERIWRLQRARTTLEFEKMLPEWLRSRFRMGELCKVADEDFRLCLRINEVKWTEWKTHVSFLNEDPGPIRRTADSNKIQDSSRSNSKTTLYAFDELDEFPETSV
The data set is described as follows: Whole-cell patch clamp, rat TRPV3-mediated currents.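 Also: compounds tested at concentrations up to 30 µM.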 Format: cell-based. The source says: (§1) Whole-cell patch clamp experiments permit the detection of currents through the TRPV3 channel in the cell line described above. A glass electrode is brought into contact with a single cell and the membrane is then ruptured, permitting control of the voltage of the cell membrane and measurement of currents flowing across the membrane using the amplifier attached to the electrode. A perfusion system permits control of the extracellular solution, including the addition of blockers and activators of the current. The current can be activated by heating this solution to 28° C. or warmer or by addition of 20 μM 2-APB to the solution.
(§2) TRPV3 cells were induced 20-48 hours, removed from growth plates, and replated at low density (to attain good single-cell physical separation) on glass coverslips for measurement. In some cases, cells were grown in low density overnight on glass coverslips. Patch clamp recordings were made in the whole-cell mode with a holding potential of −40 mV. Every 5 seconds, a voltage ramp was applied from −120 to +100 mV, 400 ms in duration. Currents elicited were quantified at −80 mV and +80 mV. The internal solution consisted of 140 mM cesium aspartate, 10 mM EGTA, 2.27 mM MgCl2, 1.91 mM CaCl2 and 10 mM HEPES, pH to 7.2 with KOH; with 50 nM calculated free Ca^2+. External solution was Ringer's solution described above. Upon addition of 2-APB or upon heating of the extracellular solution as described above, TRPV3 current was induced only in TRPV3-expressing cells and not in parental HEK293 TREx cells. […] Removal of the stimulus caused most of the current to go away, and inhibitor addition could still inhibit this current. […]
(§3) P1 refers to the Phase 1 current for human (h) and rat (r) TRPV3, and P2 refers to the Phase 2 current for human (h) and rat (r) TRPV3.

A further data set addresses T3, human (h) TRPV3 (Homo sapiens, UniProt Q8NET8).
T3 construct: expressed in transfected cells; host or cells: HEK293/TREx, tetracycline-induced
T3 sequence (Q8NET8 1-790): T1 sequence (Q8NET8 1-790)
Nature of the data set: Whole-cell patch clamp, human TRPV3-mediated currents.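 Also: compounds tested at concentrations up to 30 µM.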 Format: cell-based.
Source text: as §1, §2, §3
(In general: Patch clamp records ionic current or voltage across a cell membrane.)

The target in a further data set is hERG (Homo sapiens, UniProt Q12809). Nature of the data set: in vitro.
Chain of hERG (Q12809 whole entry): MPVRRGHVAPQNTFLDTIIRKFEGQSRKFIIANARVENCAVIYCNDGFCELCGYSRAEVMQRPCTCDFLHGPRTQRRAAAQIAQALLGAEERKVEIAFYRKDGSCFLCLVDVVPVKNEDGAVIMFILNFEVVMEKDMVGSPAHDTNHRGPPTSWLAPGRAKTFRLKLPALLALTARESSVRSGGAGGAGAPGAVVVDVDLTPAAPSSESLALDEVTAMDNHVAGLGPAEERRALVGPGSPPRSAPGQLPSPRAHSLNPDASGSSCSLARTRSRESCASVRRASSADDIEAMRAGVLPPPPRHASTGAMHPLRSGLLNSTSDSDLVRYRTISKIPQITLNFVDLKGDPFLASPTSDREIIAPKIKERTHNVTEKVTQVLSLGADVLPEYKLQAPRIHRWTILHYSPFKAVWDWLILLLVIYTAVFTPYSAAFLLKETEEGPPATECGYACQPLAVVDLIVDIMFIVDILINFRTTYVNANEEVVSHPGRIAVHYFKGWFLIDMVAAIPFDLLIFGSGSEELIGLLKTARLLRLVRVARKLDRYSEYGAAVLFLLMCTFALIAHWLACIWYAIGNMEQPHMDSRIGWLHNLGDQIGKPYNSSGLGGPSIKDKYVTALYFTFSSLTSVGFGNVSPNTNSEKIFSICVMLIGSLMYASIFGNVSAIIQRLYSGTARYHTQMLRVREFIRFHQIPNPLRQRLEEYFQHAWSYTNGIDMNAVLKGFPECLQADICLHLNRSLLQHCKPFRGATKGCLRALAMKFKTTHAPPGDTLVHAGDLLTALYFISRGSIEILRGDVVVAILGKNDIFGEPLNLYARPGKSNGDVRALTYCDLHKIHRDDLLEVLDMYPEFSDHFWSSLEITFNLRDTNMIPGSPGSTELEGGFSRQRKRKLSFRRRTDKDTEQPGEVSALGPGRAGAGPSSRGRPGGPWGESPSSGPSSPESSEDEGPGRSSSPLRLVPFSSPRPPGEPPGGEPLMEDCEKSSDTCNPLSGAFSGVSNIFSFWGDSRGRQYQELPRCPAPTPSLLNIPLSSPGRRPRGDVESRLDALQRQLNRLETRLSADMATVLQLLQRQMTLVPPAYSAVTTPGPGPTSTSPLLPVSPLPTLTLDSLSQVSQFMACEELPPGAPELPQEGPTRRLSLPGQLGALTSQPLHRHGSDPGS

Each structure is given as a SMILES string. Where two headings read alike, the source gives them in different places. Some results are limits rather than exact numbers.

Data on two compounds can be found in US9486455B2, “Compounds for modulating TRPV3 function” (HYDRA BIOSCIENCES, INC., priority 2007, dated 2016).

Description for hERG: Compounds of interest can be tested against these channels at concentrations up to 30 μM, and the resulting data can be used to estimate IC50 for inhibition of the activity of these other ion channels.

For the compound `Cc1cccc(C)c1-n1c(/C=C/c2cccc3cn[nH]c23)nc2ccccc2c1=O` [Compound 40], the IC50 on TRPV3 channel is below 5000 nM.
As to `COc1nccc(/C=C/c2nc3ccccc3c(=O)n2-c2c(C)cccc2C)c1O` [Compound 37], the IC50 was at most 500 nM on rat (r) TRPV3 (Phase 1 inward current, read-out: P1 In (r)); at most 500 nM at rat (r) TRPV3 (Phase 1 outward current, read-out: P1 Out (r)); at most 500 nM at rat (r) TRPV3 (Phase 2 inward current, read-out: P2 In (r)); at most 500 nM at rat (r) TRPV3 (Phase 2 outward current, read-out: P2 Out (r)); at most 500 nM at human (h) TRPV3 (Phase 1 inward current, read-out: P1 In (h)); at most 500 nM at human (h) TRPV3 (Phase 1 outward current, read-out: P1 Out (h)). The IC50 on human (h) TRPV3 (Phase 2 inward current, read-out: P2 In (h)) was at most 500 nM; on human (h) TRPV3 (Phase 2 outward current, read-out: P2 Out (h)), at most 500 nM; against hERG it was at least 20000 nM.
